The subject of assay [1] is BJ. Kind of assay: BJ-TERT fibroblast viability loss – cell-based, RAS-independent, luminescence, dose response (AID 1933). The format is functional. Conditions: Homo sapiens.
Assay [2] deals with BJ. Kind of assay: cells. Format: functional, cell-based. As to conditions: Homo sapiens.
The test system of assay [3] is BJ. Kind of assay: BJ-TERT-LT-ST fibroblast viability loss – cell-based, RAS-independent, luminescence, dose response (AID 1935).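 Note: BJ fibroblasts immortalized with TERT plus LT and ST oncogenes.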 Format: functional. Conditions: Homo sapiens.
Assay [4] can be described thus: DRD fibroblast viability loss – cell-based, non-viral oncogenic, luminescence, dose response (AID 1934). Format: functional. Conditions: Homo sapiens.
Assay [5] has as its target Intestinal-type alkaline phosphatase (Mus musculus, UniProt P24822). Nature of the assay: PubChem AID 488785. The format is functional.
In assay [6] the target is T1, Alkaline phosphatase, tissue-nonspecific isozyme (Homo sapiens, UniProt P05186).
T1 sequence (P05186 whole entry): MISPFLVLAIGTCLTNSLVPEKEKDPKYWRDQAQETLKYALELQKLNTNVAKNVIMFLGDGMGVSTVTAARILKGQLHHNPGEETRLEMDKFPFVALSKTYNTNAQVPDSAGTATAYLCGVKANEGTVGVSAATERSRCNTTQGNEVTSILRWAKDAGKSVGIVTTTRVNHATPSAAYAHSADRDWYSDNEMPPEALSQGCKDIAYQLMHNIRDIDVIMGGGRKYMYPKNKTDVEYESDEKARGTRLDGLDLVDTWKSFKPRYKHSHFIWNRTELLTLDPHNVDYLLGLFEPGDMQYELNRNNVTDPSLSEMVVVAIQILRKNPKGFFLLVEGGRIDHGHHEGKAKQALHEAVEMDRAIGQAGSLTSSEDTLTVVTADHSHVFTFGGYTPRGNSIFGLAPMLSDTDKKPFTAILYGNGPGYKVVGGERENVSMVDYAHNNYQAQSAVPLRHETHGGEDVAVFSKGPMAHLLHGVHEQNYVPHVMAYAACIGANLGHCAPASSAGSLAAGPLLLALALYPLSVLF
Kind of assay: TNAP enzyme inhibition by screening hits, dose response, selectivity assay for mouse IAP inhibitor project, biochemical, human TNAP, uHTS hits (AID 488906). Format: functional.

Assay [7] has as its target Intestinal-type alkaline phosphatase (Homo sapiens, UniProt P09923). Kind of assay: inhibition of human intestinal alkaline phosphatase – biochemical, dose response (AID 488876). The format is functional.
Assay [8] can be described thus: restored growth of temperature-sensitive Burl-1 yeast – whole organism, S. cerevisiae, Burl-1 ts mutant, luminescence, counter-screen for SUMOylation pathway inhibitor project, dose response (AID 463199). Format: functional.
Assay [9] concerns the target Lysine-specific demethylase 4C (Homo sapiens, UniProt Q9H3R0). Kind of assay: inhibition of JMJD2C H3K9me3 demethylation – biochemical, DELFIA europium, cherry-picked samples, dose response (AID 488835). Format: functional.
Assay [10] addresses Phospholipase D1 (Homo sapiens, UniProt Q13393). Nature of the assay: PLD1 purified enzyme concentration response. [Related pubchem assays (depositor defined):AID588854]. Format: functional.
The target in assay [11] is T2, Leucine aminopeptidase (Plasmodium falciparum 3D7, UniProt Q8IL11).
T2 sequence (Q8IL11 whole entry): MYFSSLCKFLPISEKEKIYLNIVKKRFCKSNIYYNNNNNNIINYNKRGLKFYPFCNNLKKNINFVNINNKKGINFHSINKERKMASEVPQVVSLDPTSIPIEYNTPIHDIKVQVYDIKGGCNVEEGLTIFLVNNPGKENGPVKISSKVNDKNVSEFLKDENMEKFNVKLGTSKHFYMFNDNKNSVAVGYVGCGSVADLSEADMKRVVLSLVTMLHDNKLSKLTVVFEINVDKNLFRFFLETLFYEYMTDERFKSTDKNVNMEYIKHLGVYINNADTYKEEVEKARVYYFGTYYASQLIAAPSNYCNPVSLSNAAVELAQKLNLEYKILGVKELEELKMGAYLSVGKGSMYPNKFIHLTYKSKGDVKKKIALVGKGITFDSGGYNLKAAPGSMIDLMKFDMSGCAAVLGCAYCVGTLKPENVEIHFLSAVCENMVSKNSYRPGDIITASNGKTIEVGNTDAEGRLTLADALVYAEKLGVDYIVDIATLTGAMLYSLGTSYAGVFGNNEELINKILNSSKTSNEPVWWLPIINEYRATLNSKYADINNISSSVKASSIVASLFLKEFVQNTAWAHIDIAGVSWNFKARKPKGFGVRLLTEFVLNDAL
Nature of the assay: P. falciparum M17LAP inhibitors, primary screen, biochemical, fluorogenic H-Leu-NHMec substrate, 1536-well (AID 1619). The format is functional.

For assay [12], the target named is T3, Heat shock 70 kDa protein 1A (Homo sapiens, UniProt P0DMV8). Kind of assay: small-molecule inhibition of Hsp70 – biochemical, TR-FRET (AID 786).
Assay [13] has as its target T4, Dual specificity protein phosphatase 3 (Homo sapiens, UniProt P51452). Nature of the assay: VHR1 phosphatase inhibitors, primary screen, biochemical, absorbance, uHTS (AID 1654).
Assay [14] has as its target T3, Heat shock 70 kDa protein 1A. Nature of the assay: small molecules displacing fluorescent ligand from Hsp70 – biochemical, fluorescence polarization, primary screen (AID 583). Background: Polarisation of emitted light reports the rotation of a fluorescent probe.
Assay [15] has as its target Guanyl-specific ribonuclease T1 (Aspergillus oryzae (strain ATCC 42149 / RIB 40), UniProt P00651). Kind of assay: inhibition of ribonuclease T1 activity – biochemical, fluorescence polarization, 1536-well, counter-screen for TPT1 inhibitor project, dose response (AID 2167).
In assay [16] the target is Mothers against decapentaplegic homolog 3 (Homo sapiens, UniProt P84022). Nature of the assay: inhibitors of SMAD-driven TGF-beta signaling – dose response (AID 715). Format: functional.
Assay [17] deals with Likely tRNA 2'-phosphotransferase (Candida albicans (strain SC5314 / ATCC MYA-2876) (Yeast), UniProt Q5A7N4). Nature of the assay: inhibition of Candida TPT1 enzyme activity – biochemical, fluorescence polarization, dose response (AID 2160).
For assay [18], the target named is T3, Heat shock 70 kDa protein 1A. Kind of assay: inhibition of Hsp70 binding activity – biochemical, fluorescence polarization, SAR follow-up (AID 1072).
In assay [19] the target is T4, Dual specificity protein phosphatase 3. Kind of assay: VHR1 phosphatase inhibitors, biochemical (AID 1878).
In assay [20] the target is T5, Dual specificity protein phosphatase 6 (Rattus norvegicus, UniProt Q64346).
T5 sequence (Q64346 whole entry): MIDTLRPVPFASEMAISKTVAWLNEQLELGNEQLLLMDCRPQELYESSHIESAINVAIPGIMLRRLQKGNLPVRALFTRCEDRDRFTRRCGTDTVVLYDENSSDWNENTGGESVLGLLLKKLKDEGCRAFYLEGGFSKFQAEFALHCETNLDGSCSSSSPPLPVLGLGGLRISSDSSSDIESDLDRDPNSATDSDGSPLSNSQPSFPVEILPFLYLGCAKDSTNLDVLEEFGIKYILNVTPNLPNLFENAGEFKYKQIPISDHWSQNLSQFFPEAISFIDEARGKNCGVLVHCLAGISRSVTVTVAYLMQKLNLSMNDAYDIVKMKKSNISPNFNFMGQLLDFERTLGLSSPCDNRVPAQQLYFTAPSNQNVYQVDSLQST
Kind of assay: inhibition of rat DUSP6 enzyme activity – biochemical, in vitro, primary screen (AID 425).

Assay [21] concerns the target Induced myeloid leukemia cell differentiation protein Mcl-1 (Homo sapiens, UniProt Q07820). The format is functional.
For assay [22], the target named is Eukaryotic translation initiation factor 4E (Mus musculus, UniProt P63073). Nature of the assay: blockers of eIF4G binding by eIF4E – biochemical, TR-FRET, dose response (AID 855).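 Note: potency for disrupting eIF4E binding to eIF4GI seen as loss of FRET.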 Format: functional.
Assay [23] has as its target Cytochrome P450 2C9 (Homo sapiens, UniProt P11712). Conditions: Potency.

Molecules are shown by their SMILES. Calls of active or inactive are those of the source. Some results are limits rather than exact numbers.

T3 sequence (P0DMV8 whole entry): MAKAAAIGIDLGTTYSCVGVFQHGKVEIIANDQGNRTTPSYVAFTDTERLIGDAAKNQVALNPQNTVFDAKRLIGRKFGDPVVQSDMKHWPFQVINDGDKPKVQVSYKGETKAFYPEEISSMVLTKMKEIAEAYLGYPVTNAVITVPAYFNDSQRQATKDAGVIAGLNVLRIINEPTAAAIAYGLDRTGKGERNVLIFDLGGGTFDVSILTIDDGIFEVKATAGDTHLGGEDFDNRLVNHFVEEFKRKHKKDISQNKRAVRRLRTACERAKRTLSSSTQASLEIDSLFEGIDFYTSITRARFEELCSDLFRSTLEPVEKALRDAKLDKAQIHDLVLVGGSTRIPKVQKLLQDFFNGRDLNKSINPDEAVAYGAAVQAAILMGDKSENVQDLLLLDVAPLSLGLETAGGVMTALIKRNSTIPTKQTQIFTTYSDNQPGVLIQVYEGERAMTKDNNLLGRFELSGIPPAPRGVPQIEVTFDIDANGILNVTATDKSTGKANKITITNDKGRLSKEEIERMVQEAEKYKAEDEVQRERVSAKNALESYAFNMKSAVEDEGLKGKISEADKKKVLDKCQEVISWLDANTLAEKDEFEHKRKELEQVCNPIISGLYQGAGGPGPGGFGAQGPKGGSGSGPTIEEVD
T4 sequence (P51452 whole entry): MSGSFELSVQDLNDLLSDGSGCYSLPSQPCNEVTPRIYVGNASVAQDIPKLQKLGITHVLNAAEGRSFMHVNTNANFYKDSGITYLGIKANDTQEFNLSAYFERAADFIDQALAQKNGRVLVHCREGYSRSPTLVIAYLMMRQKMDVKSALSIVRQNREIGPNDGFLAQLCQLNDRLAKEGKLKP
Chain of Intestinal-type alkaline phosphatase (Mus musculus, UniProt P24822) (P24822 whole entry): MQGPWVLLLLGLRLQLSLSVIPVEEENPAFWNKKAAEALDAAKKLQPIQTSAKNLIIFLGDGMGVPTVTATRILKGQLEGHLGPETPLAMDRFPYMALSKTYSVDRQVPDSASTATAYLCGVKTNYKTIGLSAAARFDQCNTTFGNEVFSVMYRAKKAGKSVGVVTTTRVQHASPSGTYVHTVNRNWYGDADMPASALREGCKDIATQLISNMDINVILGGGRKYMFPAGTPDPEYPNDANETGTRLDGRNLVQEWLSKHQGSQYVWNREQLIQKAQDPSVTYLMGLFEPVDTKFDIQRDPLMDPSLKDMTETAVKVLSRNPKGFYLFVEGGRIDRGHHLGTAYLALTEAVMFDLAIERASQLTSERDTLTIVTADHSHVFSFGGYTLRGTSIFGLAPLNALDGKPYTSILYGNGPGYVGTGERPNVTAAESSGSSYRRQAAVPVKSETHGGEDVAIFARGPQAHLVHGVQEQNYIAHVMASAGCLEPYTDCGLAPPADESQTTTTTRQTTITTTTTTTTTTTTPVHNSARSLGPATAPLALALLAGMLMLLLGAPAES
Chain of Intestinal-type alkaline phosphatase (Homo sapiens, UniProt P09923) (P09923 whole entry): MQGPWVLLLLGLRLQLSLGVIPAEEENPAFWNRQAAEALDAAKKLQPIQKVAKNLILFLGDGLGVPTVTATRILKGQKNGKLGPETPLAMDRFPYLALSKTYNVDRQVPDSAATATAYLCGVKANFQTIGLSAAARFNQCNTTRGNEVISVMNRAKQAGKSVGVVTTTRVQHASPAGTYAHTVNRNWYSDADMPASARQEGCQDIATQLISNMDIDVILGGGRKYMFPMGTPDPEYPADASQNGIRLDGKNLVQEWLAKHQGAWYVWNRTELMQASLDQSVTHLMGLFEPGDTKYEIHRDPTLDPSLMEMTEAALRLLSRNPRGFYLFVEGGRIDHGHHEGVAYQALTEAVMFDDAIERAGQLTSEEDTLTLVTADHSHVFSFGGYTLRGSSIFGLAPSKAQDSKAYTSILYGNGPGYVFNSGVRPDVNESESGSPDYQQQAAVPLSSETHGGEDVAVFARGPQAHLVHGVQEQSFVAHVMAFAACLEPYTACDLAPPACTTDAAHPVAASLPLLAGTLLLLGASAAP
Chain of Induced myeloid leukemia cell differentiation protein Mcl-1 (Q07820 whole entry): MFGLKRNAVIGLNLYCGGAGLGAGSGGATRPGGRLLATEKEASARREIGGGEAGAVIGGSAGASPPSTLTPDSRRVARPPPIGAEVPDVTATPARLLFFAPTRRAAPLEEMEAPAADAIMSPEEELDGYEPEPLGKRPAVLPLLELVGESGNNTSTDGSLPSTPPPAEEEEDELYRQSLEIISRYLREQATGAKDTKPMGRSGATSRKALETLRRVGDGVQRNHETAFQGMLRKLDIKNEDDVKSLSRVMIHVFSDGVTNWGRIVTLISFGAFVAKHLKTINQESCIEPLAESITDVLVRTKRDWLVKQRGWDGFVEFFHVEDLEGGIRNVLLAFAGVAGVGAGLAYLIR
Chain of Eukaryotic translation initiation factor 4E (P63073 whole entry): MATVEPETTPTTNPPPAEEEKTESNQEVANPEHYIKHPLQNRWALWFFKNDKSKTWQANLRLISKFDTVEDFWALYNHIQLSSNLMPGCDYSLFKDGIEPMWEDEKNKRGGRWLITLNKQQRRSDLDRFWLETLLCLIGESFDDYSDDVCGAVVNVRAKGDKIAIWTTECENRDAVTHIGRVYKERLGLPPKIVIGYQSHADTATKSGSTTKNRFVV
Chain of Guanyl-specific ribonuclease T1 (P00651 whole entry): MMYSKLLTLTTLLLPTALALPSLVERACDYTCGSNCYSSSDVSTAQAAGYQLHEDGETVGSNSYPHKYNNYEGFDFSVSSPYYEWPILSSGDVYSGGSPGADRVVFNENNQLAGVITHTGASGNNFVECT
Chain of Mothers against decapentaplegic homolog 3 (P84022 whole entry): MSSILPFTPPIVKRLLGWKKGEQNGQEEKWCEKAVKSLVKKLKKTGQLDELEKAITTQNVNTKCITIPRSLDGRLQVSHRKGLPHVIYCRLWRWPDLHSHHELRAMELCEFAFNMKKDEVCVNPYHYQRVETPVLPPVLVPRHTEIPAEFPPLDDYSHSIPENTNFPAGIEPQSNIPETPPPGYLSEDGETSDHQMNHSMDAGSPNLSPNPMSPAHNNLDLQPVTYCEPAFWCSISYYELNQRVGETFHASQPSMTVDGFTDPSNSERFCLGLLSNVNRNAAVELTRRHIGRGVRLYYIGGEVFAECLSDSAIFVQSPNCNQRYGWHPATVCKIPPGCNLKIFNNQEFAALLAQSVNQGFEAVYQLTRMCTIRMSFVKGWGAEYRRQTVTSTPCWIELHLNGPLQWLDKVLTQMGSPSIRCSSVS
Chain of Cytochrome P450 2C9 (P11712 whole entry): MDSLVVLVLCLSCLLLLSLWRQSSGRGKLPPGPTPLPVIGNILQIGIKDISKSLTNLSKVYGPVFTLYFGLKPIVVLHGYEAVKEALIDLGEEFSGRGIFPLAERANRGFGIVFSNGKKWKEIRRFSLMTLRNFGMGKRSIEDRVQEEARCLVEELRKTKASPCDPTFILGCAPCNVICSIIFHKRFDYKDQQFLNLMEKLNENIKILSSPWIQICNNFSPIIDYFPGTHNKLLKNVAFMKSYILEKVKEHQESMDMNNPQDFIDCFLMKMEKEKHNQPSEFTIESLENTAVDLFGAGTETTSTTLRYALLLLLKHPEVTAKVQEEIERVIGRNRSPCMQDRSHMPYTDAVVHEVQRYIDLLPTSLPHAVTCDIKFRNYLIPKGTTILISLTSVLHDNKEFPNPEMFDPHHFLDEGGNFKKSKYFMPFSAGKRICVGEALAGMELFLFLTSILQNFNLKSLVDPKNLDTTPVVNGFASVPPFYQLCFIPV
Chain of Lysine-specific demethylase 4C (Q9H3R0 whole entry): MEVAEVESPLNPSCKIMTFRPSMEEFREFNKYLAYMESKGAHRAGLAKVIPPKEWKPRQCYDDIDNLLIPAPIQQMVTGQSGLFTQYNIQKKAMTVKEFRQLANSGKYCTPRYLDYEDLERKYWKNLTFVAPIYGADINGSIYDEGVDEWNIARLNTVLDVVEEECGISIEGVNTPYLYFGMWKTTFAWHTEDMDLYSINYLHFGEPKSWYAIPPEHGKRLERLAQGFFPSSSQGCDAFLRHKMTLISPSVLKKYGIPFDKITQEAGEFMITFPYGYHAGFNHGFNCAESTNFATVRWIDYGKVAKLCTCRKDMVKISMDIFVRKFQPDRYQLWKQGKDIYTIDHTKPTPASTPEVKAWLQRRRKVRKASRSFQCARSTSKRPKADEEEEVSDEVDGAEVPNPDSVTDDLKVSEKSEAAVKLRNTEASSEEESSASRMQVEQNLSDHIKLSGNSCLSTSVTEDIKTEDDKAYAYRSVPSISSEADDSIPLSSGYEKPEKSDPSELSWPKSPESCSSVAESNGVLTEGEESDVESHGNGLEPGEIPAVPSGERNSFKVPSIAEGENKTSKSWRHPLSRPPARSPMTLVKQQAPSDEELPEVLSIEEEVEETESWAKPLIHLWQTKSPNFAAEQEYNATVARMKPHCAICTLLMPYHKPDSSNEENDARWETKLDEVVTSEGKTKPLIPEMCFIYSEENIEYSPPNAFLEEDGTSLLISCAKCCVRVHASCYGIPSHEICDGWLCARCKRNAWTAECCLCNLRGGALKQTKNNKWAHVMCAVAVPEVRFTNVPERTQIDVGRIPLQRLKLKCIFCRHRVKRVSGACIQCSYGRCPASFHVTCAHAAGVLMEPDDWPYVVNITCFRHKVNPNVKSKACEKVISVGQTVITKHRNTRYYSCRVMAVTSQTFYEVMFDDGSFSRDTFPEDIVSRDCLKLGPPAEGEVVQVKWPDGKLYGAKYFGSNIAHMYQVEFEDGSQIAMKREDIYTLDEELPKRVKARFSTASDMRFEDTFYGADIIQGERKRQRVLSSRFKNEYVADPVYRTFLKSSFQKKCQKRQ
Chain of Likely tRNA 2'-phosphotransferase (Q5A7N4 whole entry): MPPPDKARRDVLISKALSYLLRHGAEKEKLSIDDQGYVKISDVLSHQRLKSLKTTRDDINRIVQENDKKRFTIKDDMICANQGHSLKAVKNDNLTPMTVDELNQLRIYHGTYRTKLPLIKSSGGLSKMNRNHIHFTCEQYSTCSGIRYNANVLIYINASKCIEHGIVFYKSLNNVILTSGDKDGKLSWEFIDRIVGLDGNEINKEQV

One may read the EC50 as the concentration at which the effect is half-maximal. Broadly, the IC50 is the midpoint of a concentration-inhibition curve. `CC(C)=CCc1c(O)c(CC=C(C)C)c2c(c1O)-c1cc(O)c(O)cc1CC2`: the concentration giving a half-maximal response (EC50) in [1] is 8.58 µM (inconclusive); in assay [2] it was > 150 µM (not active); in assay [3], > 75 µM (inconclusive); in [4], 14.7 µM (active). Besides, the IC50 was 5.45 µM (active) in assay [5], > 100 µM (inactive) in assay [6] and > 100 µM (inactive) in assay [7].

The term AC50 denotes the concentration giving half of the maximal activity seen. With `O=C(CNC(=O)c1ccco1)OCC(=O)c1cccc2ccccc12`, the AC50 in [8] was 54.6 µM (active).

Regarding `Cc1ccc(NN=Nc2nc3c(=O)n(C)c(=O)n(C)c3[nH]2)cc1`, the half-maximal activity concentration (AC50) in [9] was 24.7 µM (active).

As to `O=C(NCCN1CCC2(CC1)C(=O)NCN2c1ccccc1)c1cnc2ccccc2c1`, in [10], the IC50 is 20 µM (active).

For the compound `O=c1oc2c(O)c(O)cc3c(=O)oc4c(O)c(O)cc1c4c23` [ELLAGIC ACID], the IC50 in assay [11] was 138 µM (active); in [12], > 100 µM (not active); in assay [13], < 0.98 µM (inactive); in [14], 0.76 µM (active); in [15] it was > 55.7 µM (not active); in [16] it was 0.142 µM (active). The IC50 is 0.541 µM (active) in assay [17]; > 100 µM (not active) in assay [18]; < 1.23 µM (inactive) in [19]; 39.5 µM (active) in [20]; > 54 µM (active) in assay [21]; 47.7 µM (inactive) in assay [22]. Further, in assay [23], the AC50 was 39.8 µM (inconclusive).
